Patent publication US20240108760A1 (priority 2021, published 2024)
Entries after “also recorded” stand apart in the source; their conditions may differ. Read-outs that look alike come from different tables or passages of the source.

B1: CODA71: chimeric LGIC: human α7-nAChR ligand binding domain with GlyRα1 Cys-loop, fused to human GlyRα1 ion pore domain; SEQ ID NO: 33 (protein)
chain: MRCSPGGVWLALAASLLHVSLQGEFQRKLYKELVKNYNPLERPVANDSQPLTVYFSLSLLQIMDVDEKNQVLTTNIWLQMSWTDHYLQWNVSEYPGVKTVRFPDGQIWKPDILLYNSADERFDATFHTNVLVNSSGHCQYLPPGIFKSSCPMDLKNFPMDVQTCKLKFGSWSYGGWSLDLQMQEADISGYIPNGEWDLVGIPGKRSERFYECCKEPYPDVTFTVTMRRRMGYYLIQMYIPSLLIVILSWISFWINMDAAPARVGLGITTVLTMTTQSSGSRASLPKVSYVKAIDIWMAVCLLFVFSALLEYAAVNFVSRQHKELLRFRRKRRHHKSPMLNLFQEDEAGEGRFNFSAYGMGPACLQAKDGISVKGANNSNTTNPPPAPSKSPEEMRKLFIQRAKKIDKISRIGFPMAFLIFNMFYWIIYKIVRREDVHNQ

How the values were obtained:
[1] = target: T1, CODA71 chimeric receptors (Homo sapiens, UniProt P36544, F159M/H163T/I152M/R155K/V154L/W156N/Y151P); experiment: Whole cell current clamp recording of CA1 neurons in acute slices, TC-5619 bath application; format: cell-based, C57BL/6 mice
[2] = target: T1, CODA71 chimeric receptors; experiment: Evoked hippocampal seizure threshold, perforant pathway electrical stimulation; format: in vivo, C57BL/6 mice; details: for increase of minimal threshold potential to evoke electrographic seizures: i.p. TC-5619 (100 mg/kg)
Method: (§1) Changes to evoked hippocampal seizure thresholds were measured in response to perforant pathway electrical stimulation. For spontaneous seizure experiments, mice were unilaterally injected intrahippocampally with kainic acid (KA) to induce epilepsy, 3 weeks prior to AAV9 injection and EEG electrode implantation.
In one set of animal studies, two weeks prior to seizure threshold testing, CODA71 were bilaterally-expressed in CA1/DG, along with bipolar electrode placement in CAT and the perforant pathway. 45 minutes prior to threshold testing, mice received 100 mg/kg TC-5619 or saline via i.p. injection. Electrical stimulation (1 sec at 60 Hz, 1 ms pulses) of increasing amplitude was delivered every 100 seconds, until electrographic seizures were evoked (FIG. 29).
Here evoked seizure thresholds were determined by monitoring responses to increasing amplitude electrical stimulation and as the minimal stimulation amplitude required to evoke sustained epileptic form activity in each trial.

[3] = target: T1, CODA71 chimeric receptors; experiment: Spontaneous seizures in the intrahippocampal kainic acid focal epilepsy model (chronic EEG); format: in vivo, C57BL/6 mice; details: for focal seizures (overall conclusion): CODA71 delivered by AAV9 to hippocampus, activated by TC-5619
Method: as §1
In one set of animal studies, seven weeks prior to testing of neuron activities, kainic acid was unilaterally injected into CAT to evoke spontaneous seizures. Five weeks later, CODA71 receptor were bilaterally expressed in CA1/DG, along with bipolar electrode placement in CAT for recording EEG (FIG. 32). Spontaneous seizures were tracked with chronic EEG recordings. On alternating days, mice received two i.p. injections of either 100 mg/kg TC-5619 or saline, 2 hrs apart.

[4] = system: hippocampal neurons; experiment: Hippocampal expression of CODA71 receptor after AAV9 delivery; format: in vivo, C57BL/6 mice; details: hSyn promoter
[5] = CODA71 vector injected mice, 100 mg/kg TC-5619 i.p. 45 minutes prior
[6] = scrambled control vector injected mice, TC-5619

Molecule | neuronal / CA1 action potential firing, excitability [1] | rheobase [1] | neuron property change in presence of bungarotoxin (BTX) ([1]; CODA71 vector vs scrambled control vector, α7-nAChR ligand binding domain inhibited by BTX) | intrinsic properties of whole cell recorded neurons (RMP, input resistance, rheobase, AP count) ([1]; after 1 minute application of 150 nM TC-5619) | increase of minimal threshold potential to evoke electrographic seizures ([2]; CODA71 animals, p=0.0166 vs scrambled controls) | electrically-evoked seizure threshold [2, 5] | electrically-evoked seizure threshold [2, 6] | increase of minimal threshold potential to evoke electrographic seizures ([2]; scrambled controls) | focal seizures (overall conclusion) [3] | electrographic seizure duration ([3]; CODA71 vector mice, KA epileptic, i.p. TC-5619 100 mg/kg, p=0.0011, 100 mg/kg) | electrographic / spontaneous seizure frequency ([3]; CODA71 vector mice, KA epileptic, i.p. TC-5619 100 mg/kg, p=0.0325, 100 mg/kg) | spontaneous seizure frequency and duration [3, 6] | expression of CODA71 receptor in hippocampal / CA1 neurons [4] | neuronal / CA1 action potential firing, excitability ([1]; acute slices, CODA71 transduced, 1-minute bath application of 150 nM TC-5619)
O=C(N[C@@H]1C2CCN(CC2)[C@H]1Cc1cccnc1)c1cc2ccccc2o1 [TC-5619] | suppressed CA1 action potential firing | 368±39.7 pA | little property change | rapidly changed | 139±48.0% | increased more | did not change seizure thresholds | −10±13.2% | ameliorate spontaneous focal seizures | significantly reduced; also recorded: substantial decrease in seizure duration | significantly reduced; also recorded: dropped dramatically; also recorded: prolonged decrease in seizure frequency | little change; also recorded: No such effect was observed | – | –
B1 | – | – | – | – | – | increased | – | – | effectively suppress focal seizure; also recorded: ameliorate spontaneous focal seizures; also recorded: prevented both evoked and spontaneous focal seizures | – | – | – | expressed well; also recorded: effective expression | effectively suppress neuronal firing; also recorded: successfully suppressed hippocampal neuronal excitability
